pIC50: −log10 of the molar value.
Key:
[1] = system: HepG2 cells (2D monocultures); experiment: NBM exposure, LDH cytotoxicity assay, 2D monocultures; assay type: cell-based, Human; conditions: 125 µM, 24 h
Method: Stock NBM suspensions were vortexed and appropriate dilutions made in cell culture medium. For NBM exposures, briefly, cell culture medium was removed from the wells of culture plates and wells washed with pre-warmed PBS. For adenosine 5′-triphosphate (ATP) quantification and lactate dehydrogenase (LDH) assay, 100 µl of each NBM concentration diluted in culture medium was added to each well for three incubation/exposure timepoints, 24, 48 and 72 h.
The LDH assay is a cytotoxicity assay which is used to assess the level of plasma membrane damage in a cell population. […] LDH release in the supernatants (an indirect measure of cytotoxicity responses) was assessed using the Thermo Scientific Pierce LDH Cytotoxicity Assay Kit (Fisher Scientific, Ireland), following the manufacturers’ protocols. […] Absorbance values at wavelengths (λ) equal to 490 and 680 nm were read using an Epoch microplate reader (Biotek, Mason Technologies, Ireland). The LDH activity was calculated using Eq. (1), whereas the percentage (%) cytotoxicity was extrapolated from Eq. (2).1 LDHactivity=Absorbanceλ=490nm-Absorbanceλ=680nm 2 Cytotoxicity%=LDHactivityTreatedculture-LDHactivityNT/LDHactivityPT-LDHactivityNT […]

HepG2 2D monolayer = experiment: Sensitivity to hepatotoxins, CellTiter-Glo ATP viability, 2D monolayer; assay type: cell-based; conditions: Homo sapiens, 24-h acute dosing, estimated from graphs
Method: (§1) For 2D monolayers, 10,000 HepG2 cells were seeded on 96-well plates (Thermo Fisher, Ireland). Cells were left to adhere for 24 h before being treated with chosen NBMs for desired timepoints. For HepG2 spheroid formation, cells were seeded in CellStar® 96 well ultra-low attachment (ULA) cell-repellent plates (Grenier, BioOne, UK) at a density of 1000 cells per well in 100 µl medium (Fig. 1). After 3 days of incubation at 37 °C with 5% CO2, medium was changed with care taken not to disturb the spheroids.
(§2) Sensitivity of spheroid cultures to a panel of common hepatotoxins was tested using a protocol detailed previously in works from Gaskell et al. and Bell et al. and using information listed in the MIP-DILI training set. The hepatotoxins included acetaminophen, diclofenac, trovafloxacin and fialuridine. HepG2 spheroids grown for 3 days and 10 days were exposed to the hepatotoxins, diluted in cell culture medium, for 4 days, with an addition dose administered 2 days after the first exposure. Concentrations tested for each compound were the following: • Acetaminophen: 10000, 5000, 1250, 625, 300, 150, 75 µg/ml • Diclofenac: 400, 200, 100, 50, 25, 12.5, 6.25 µg/ml • Trovafloxacin: 500, 200, 100, 50, 25, 12.5, 6.25 µg/ml • Fialuridine: 200, 100, 50, 25, 12.5, 6.25, 3.15 µg/ml
(§3) Viability of the treated cultures was determined using the CellTiter-Glo® assay (Thermo Fisher, Ireland) as per the manufacturer’s protocol. Culture medium alone with CellTiter-Glo® reagent was used as a blank control and subtracted from all sample values. Cell viability was calculated as a percentage of untreated vehicle control samples. A dose-dependent response curve was plotted, and estimations were made about what concentration of drug would cause a 50% reduction in cell viability (IC50 value). Experiments were run in triplicate (n = 3).
(§4) Spheroids and HepG2 monolayers were treated with varying concentrations of four common hepatotoxic compounds, namely acetaminophen, diclofenac, fialuridine and trovafloxacin. Following a protocol detailed in Gaskell et al., a 4-day repeat-dosing regimen was used to expose 3D spheroids, i.e. spheroids were cultured for 3 days before being treated with hepatotoxic compounds for 2 days, before doing is repeated again on day 5. Spheroids then remained in culture untouched until ATP quantification assay was undertaken on day 7. […] Each of the four chosen compounds was more toxic in 3D spheroids than in 2D monocultures, although differences were not statistically significant. The concentration causing a 50% reduction in cell viability (IC50) was estimated for each drug tested from the graphs, and is reported in Table 7. A comparison to data extracted from the scientific literature is also reported.

HepG2 spheroids = experiment: Sensitivity to hepatotoxins, CellTiter-Glo ATP viability, 3D spheroids; assay type: cell-based; conditions: Homo sapiens, 4-day repeat dosing (day 3 and day 5), readout day 7, estimated from graphs
Method: as §1, §2, §3, §4

SMILES: CC(C)[C@@H]1NC(=O)[C@H](C)OC(=O)[C@@H](C(C)C)NC(=O)[C@@H](C(C)C)OC(=O)[C@H](C(C)C)NC(=O)[C@H](C)OC(=O)[C@@H](C(C)C)NC(=O)[C@@H](C(C)C)OC(=O)[C@H](C(C)C)NC(=O)[C@H](C)OC(=O)[C@@H](C(C)C)NC(=O)[C@@H](C(C)C)OC1=O [valinomycin]
- Maximal cell death [1]: < 50%

SMILES: O=c1[nH]c(=O)n([C@@H]2O[C@H](CO)[C@@H](O)[C@@H]2F)cc1I [Fialuridine, fialuridine]
- pIC50 (HepG2 2D monolayer): < 3.70
- pIC50 (HepG2 spheroids): < 3.70

SMILES: O=C(O)Cc1ccccc1Nc1c(Cl)cccc1Cl [Diclofenac, diclofenac]
- pIC50 (HepG2 2D monolayer): < 3.40
- pIC50 (HepG2 spheroids): < 3.60

SMILES: CC(=O)Nc1ccc(O)cc1 [Acetaminophen, acetaminophen]
- pIC50 (HepG2 2D monolayer): < 2.00
- pIC50 (HepG2 spheroids): < 2.10

SMILES: N[C@@H]1[C@H]2CN(c3nc4c(cc3F)c(=O)c(C(=O)O)cn4-c3ccc(F)cc3F)C[C@@H]12 [Trovafloxacin, trovafloxacin]
- pIC50 (HepG2 2D monolayer): < 3.40
- pIC50 (HepG2 spheroids): < 4.00

— publication PMC9360078, “Pre-clinical 2D and 3D toxicity response to a panel of nanomaterials; comparative assessment of NBM-induced liver toxicity” (Drug Delivery and Translational Research, 2022)
